{
  "source": "paper PMC12779811",
  "about": "“Diverse phloroglucinols with hAChE inhibitory and anti-VRE effects from Rhodomyrtus tomentosa fruits” (Natural Products and Bioprospecting, 2026)",
  "key": {"[1]": {"test_system": "vancomycin-resistant Enterococci (VRE)", "experiment": "Anti-VRE assay, standard broth microdilution method in 96-well plates", "assay_type": "cell-based", "conditions": "Enterococcus, ampicillin positive control, tests performed three times, read-out: MIC against vancomycin-resistant Enterococci (VRE)", "protocol": "As described in earlier studies, the antibacterial activities against vancomycin-resistant Enterococci (VRE) were achieved by a standard broth microdilution method in 96-well plates. Ampicillin (AMP) was a positive control, and all tests were performed three times."}, "[2]": {"biological_target": "T1, human acetylcholinesterase (hAChE) (Homo sapiens, UniProt P22303)", "T1 sequence (P22303 32-614)": "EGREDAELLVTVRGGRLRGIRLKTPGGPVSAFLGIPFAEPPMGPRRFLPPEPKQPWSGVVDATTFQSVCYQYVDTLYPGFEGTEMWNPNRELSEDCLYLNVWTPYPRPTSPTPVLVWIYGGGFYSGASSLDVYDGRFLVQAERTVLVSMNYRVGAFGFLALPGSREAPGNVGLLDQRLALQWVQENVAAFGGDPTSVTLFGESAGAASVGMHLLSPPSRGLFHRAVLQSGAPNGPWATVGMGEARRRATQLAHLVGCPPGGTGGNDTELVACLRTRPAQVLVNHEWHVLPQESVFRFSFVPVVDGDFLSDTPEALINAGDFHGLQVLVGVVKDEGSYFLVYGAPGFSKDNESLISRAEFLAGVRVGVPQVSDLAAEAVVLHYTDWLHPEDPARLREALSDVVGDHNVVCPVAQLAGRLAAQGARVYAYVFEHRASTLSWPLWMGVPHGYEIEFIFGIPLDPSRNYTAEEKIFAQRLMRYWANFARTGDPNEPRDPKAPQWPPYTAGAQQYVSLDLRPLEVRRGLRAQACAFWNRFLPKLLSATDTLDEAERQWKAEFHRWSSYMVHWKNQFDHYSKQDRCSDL", "experiment": "biochemical", "conditions": "triplicate; galantamine positive control; IC50 exceeding 40 μM considered inactive; read-out: hAChE inhibitory activity IC50 ± SD", "protocol": "hAChE inhibition assays were performed according to a reported protocol, with galantamine as the positive control. All assays were performed in triplicate."}, "[3]": {"biological_target": "T1, human acetylcholinesterase (hAChE)", "design": "method as in PMID 36007662", "conditions": "earlier report; cited from earlier work"}},
  "data": [
    {"smiles": "CC1(C)S[C@@H]2[C@H](NC(=O)[C@H](N)c3ccccc3)C(=O)N2[C@H]1C(=O)O", "note": "[ampicillin, reference compound]", "values": [
      {"measurement": "MIC", "setting": "[1]", "result": 2, "unit": "µg/mL"}
    ]},
    {"smiles": "CCC(C)C(=O)c1c(O)cc2c(c1O)C(C(C)CC)C1=C(O2)C(C)(C)C(=O)C(C)(C)C1=O", "note": "(stereo not shown) [phloroglucinol 8, rhodotomentodimer N]", "values": [
      {"measurement": "IC50", "setting": "[2]", "result": "3.35 ± 0.41", "unit": "µM"}
    ]},
    {"smiles": "CCC(C)C(=O)c1c(O)cc(O)c2c1OC1=C(C(=O)C(C)(C)C(=O)C1(C)C)C2C(C)C", "note": "(stereo not shown) [phloroglucinol 4, rhodotomentodimer J]", "values": [
      {"measurement": "IC50", "setting": "[2]", "result": "2.39 ± 0.25", "unit": "µM"}
    ]},
    {"smiles": "CC(C)CC(=O)c1c(O)cc2c(c1O)C(CC(C)C)C1=C(O2)C(C)(C)C(=O)C(C)(C)C1=O", "note": "(stereo not shown) [phloroglucinol 12, rhodomyrtone]", "values": [
      {"measurement": "IC50", "setting": "[2]", "result": "1.52 ± 0.14", "unit": "µM"},
      {"measurement": "MIC", "setting": "[1]", "result": 1, "unit": "µg/mL"}
    ]},
    {"smiles": "CC(C)C(=O)c1c(O)cc2c(c1O)C(C(C)C)C1=C(O2)C(C)(C)C(=O)C(C)(C)C1=O", "note": "(stereo not shown) [phloroglucinol 11, isomyrtucommulone B]", "values": [
      {"measurement": "IC50", "setting": "[2]", "result": "1.36 ± 0.16", "unit": "µM"},
      {"measurement": "MIC", "setting": "[1]", "result": 1, "unit": "µg/mL"}
    ]},
    {"smiles": "CCC(C)C(=O)c1c(O)cc2c(c1O)C(C(C)C)C1=C(O2)C(C)(C)C(=O)C(C)(C)C1=O", "note": "(stereo not shown) [phloroglucinol 9, myrciarone B]", "values": [
      {"measurement": "IC50", "setting": "[2]", "result": "2.86 ± 0.3", "unit": "µM"}
    ]},
    {"smiles": "CCC(C)C(=O)c1c(O)cc(O)c2c1OC1=C(C(=O)C(C)(C)C(=O)C1(C)C)C2C(C)C", "note": "(stereo not shown) [phloroglucinol 5, rhodotomentodimer K]", "values": [
      {"measurement": "IC50", "setting": "[2]", "result": "2.46 ± 0.33", "unit": "µM"}
    ]},
    {"smiles": "CC(C)CC(=O)c1c(O)cc(O)c2c1OC1=C(C(=O)C(C)(C)C(=O)C1(C)C)C2C(C)C", "note": "(stereo not shown) [phloroglucinol 14, callistenone A]", "values": [
      {"measurement": "IC50", "setting": "[2]", "result": "1.23 ± 0.11", "unit": "µM"},
      {"measurement": "MIC", "setting": "[1]", "result": "> 32", "unit": "µg/mL"}
    ]},
    {"smiles": "CCC(C)C(=O)c1c(O)cc2c(c1O)C(CC(C)C)C1=C(O2)C(C)(C)C(=O)C(C)(C)C1=O", "note": "(stereo not shown) [phloroglucinol 10, rhodotomentodimer D]", "values": [
      {"measurement": "inhibitory activity against human acetylcholinesterase (hAChE), in words", "setting": "[3]", "result": "exhibited inhibitory activity"}
    ]},
    {"smiles": "CCC(C)C1C2=C(Oc3c(C(=O)C(C)C)c(O)cc(O)c31)C(C)(C)C(=O)C(C)(C)C2=O", "note": "(stereo not shown) [phloroglucinol 3, rhodotomentodimer I]", "values": [
      {"measurement": "IC50", "setting": "[2]", "result": "2.89 ± 0.3", "unit": "µM"}
    ]},
    {"smiles": "CCC(C)C(=O)c1c(O)cc(O)c2c1OC1=C(C(=O)C(C)(C)C(=O)C1(C)C)C2C(C)CC", "note": "(stereo not shown) [phloroglucinol 6, rhodotomentodimer L]", "values": [
      {"measurement": "IC50", "setting": "[2]", "result": "2.62 ± 0.21", "unit": "µM"}
    ]},
    {"smiles": "CC(C)C[C@H]1C2=C(O[C@]3(C)[C@H]1C[C@]1(C(C)C)C[C@@H]13)C(C)(C)C(=O)C(C)(C)C2=O", "note": "[phloroglucinol 1, rhodotomentodione F]", "values": [
      {"measurement": "IC50", "setting": "[2]", "result": "> 40", "unit": "µM"}
    ]},
    {"smiles": "CC1(C)C(=O)C2=C(OC3(O)C(=C2)C(=O)C(C)(C)C(=O)C3(C)C)C(C)(C)C1=O", "note": "(stereo not shown) [phloroglucinol 2, rhodotomentodimer H]", "values": [
      {"measurement": "IC50", "setting": "[2]", "result": "> 40", "unit": "µM"}
    ]},
    {"smiles": "CCC(C)C(=O)c1c(O)cc(O)c2c1OC1=C(C(=O)C(C)(C)C(=O)C1(C)C)C2C(C)CC", "note": "(stereo not shown) [phloroglucinol 7, rhodotomentodimer M]", "values": [
      {"measurement": "IC50", "setting": "[2]", "result": "2.41 ± 0.22", "unit": "µM"}
    ]},
    {"smiles": "CC(C)C(=O)c1c(O)cc(O)c2c1OC1=C(C(=O)C(C)(C)C(=O)C1(C)C)C2C(C)C", "note": "(stereo not shown) [phloroglucinol 13, myrtucommulone B]", "values": [
      {"measurement": "IC50", "setting": "[2]", "result": "1.04 ± 0.03", "unit": "µM"},
      {"measurement": "MIC", "setting": "[1]", "result": "> 32", "unit": "µg/mL"}
    ]}
  ]
}
